Test results from patent publication US20170115265A1, “Use of Visibly Detectable Compounds as Performance Reference Compounds in Passive Sampling Devices” (Geosyntec Consultants, Inc., priority 2015, published 2017).
Like-named read-outs stand apart in the source and are kept apart here.

Legend:
[1] = cited from earlier work; for Log KOW value (may be estimate): common dyes, Table 1, values said to be known; for Log KOW value: drugs, reported by Scheytt et al. 2005; for Log KOW: source not stated
[2] = Example 1: elimination of PRCs from PE passive sampling devices deployed 14 days in marine aquatic sediment; type: physicochemical; details: PE PSD at Station 6, marine sediment
Description: Twenty PSDs were created (each consisting of a 4×10 cm piece of PE). Ten of the PSDs were spiked with PCB-36 (which is not visibly detectable) and ten of the PSDs were spiked with Sudan III, a visibly detectable PRC within the scope of the present disclosure. The 20 spiked PSDs then were inserted in the top 10 cm of aquatic sediment at a marine (ocean) site by scuba divers at ten locations within a half-acre area. At each of the 10 locations, one PSD containing PCB-36 and one PSD containing Sudan III were deployed.
After 14 days, the PSDs were collected by divers, brought to the surface, placed in a shipping container, and sent to a laboratory, where they were wiped with moistened tissues, placed in small vials, and extracted with solvent. […] The 13 solvents (from extraction of 10 exposed PSDs and 3 trip blanks PSDs) into which the PCB-36-spiked PSDs were extracted were then measured for PCBs using high-resolution gas chromatography/high-resolution mass spectrometry with an approximate 30- to 60-minute analysis time per sample. Via this analysis, the concentrations of PCB-36 in the 13 PCB-36-spiked PSDs were determined. […] Via this analysis, the concentration of Sudan III in the 13 Sudan III-spiked PSDs was determined. […]

[3] = polyethylene-water partition coefficient (KPE) of PCBs according to Smedes et al.; type: physicochemical; details: Log10 of the cited KPE
Description: Assuming the KPE values are roughly similar (i.e., within 10%) between the dye and the analyte of interest, the dye could also be an appropriate PRC to use for other compounds. For example, given that KPE Sudan III KPE is 390,000 L/kg, Sudan III could be used as a PRC for compounds with KPE values from 350,000 L/kg to 430,000 L/kg.

[4] = Example 2: hypothetical 28-day sediment deployment of PE PSD spiked with three dye PRCs; type: physicochemical; details: for Log10-transformed ke (hypothetical) / ke (hypothetical): PE PSD 28 days in sediment
Description: Two PSD could be created (each consisting of a 4×10 cm piece of PE).
The KPE values of the 3 dyes are dissimilar to that of PCB-60, yet they may be used to provide a ke for PCB-60 according to the following approach. One PSD containing the three above dyes would be deployed into sediment for a period of 28 days, and the other PSD containing the three above dyes would be held in storage. Following retrieval of the PSD deployed in the sediment, both PSDs would be extracted in solvent (e.g., 50-mL mixture of hexane and methylene chloride). […] Concentrations of these dyes in the PE could be calculated assuming a known mass of each PE piece. The solvent extract of the PSD that had been exposed to the sediment for 28 days would be measured for PCBs using high-resolution gas chromatography/high-resolution mass spectrometry with an approximate 30- to 60-minute analysis time per sample. Via this analysis, the concentration of PCB-60 in the PSD that had been exposed to the sediment for 28 days could be determined.
(§1) A linear regression model would then be estimated using the Log10 ke values as the dependent variable (y axis) and the Log10 KPE values as the independent variable […].
FIG. 2 is a line graph showing this equation plotted as Log10 Ke (day-1) versus Log10 KPE (liters/kg/PE). […] By using the equation from the plot shown in FIG. 2, the predicted ke value of PCB-60 could be interpolated from its known KPE value.

[5] = Example 7: elimination of dye PRCs from PE PSDs in jars of sediment and water agitated 14 days on a shaker table; type: physicochemical; details: PE PSD
Description: Two additional 3×3 cm PSDs were spiked with 10 unlabeled PCB PRCs that are not visibly detectable, but are routinely used as PRCs in passive sampling applications.
The five jars containing the PSDs were closed and agitated for a period of 14 days on a shaker table. The other four dye-spiked PSDs and PCB-spiked PSD were held in storage. Following retrieval of the PSDs deployed in the sediment after 14 days, the PSDs were extracted in solvent (e.g., 50-mL mixture of hexane and methylene chloride). […] Concentrations of these dyes in the PE could be calculated assuming a known mass of each PE piece. The solvent extracts of the PSDs that had been exposed to the sediment for 14 days and held in storage for 14 days would be measured for PCBs using high-resolution gas chromatography/high-resolution mass spectrometry with an approximate 30- to 60-minute analysis time per sample.
as §1

[6] = Example 8: Sudan III elimination from PE PSDs, marine sediment versus agitated sediment, 14 days; type: physicochemical
Procedure: Six 3×3 cm PSDs and fourteen 4×10 cm PSDs were spiked with Sudan III dye. Eleven of the larger (4×10 cm) PSDs were inserted in the top 10 cm of aquatic sediment at a marine (ocean) site by scuba divers at ten locations within a half-acre area. Three of the smaller (3×3 cm) PSDs were deployed into […] 8-oz jars containing approximately 100 g (wet weight) sediment and 150 mL water. The three jars containing the PSDs were closed and agitated for a period of 14 days on a shaker table. […] The solvents from the PSDs were analyzed on a benchtop UV/Vis spectrophotometer at wavelengths of 465 nm (to indicate the concentration of Sudan III in the solvent). Concentrations of these dyes in the PE could be calculated assuming a known mass of each PE piece.
Using the average concentrations of Sudan III in the unexposed PSDs (to represent the t=0 concentration) and the concentration of Sudan III in the PSDs that had been exposed to the marine sediment and agitated sediment for 14 days (the time t concentrations), one could estimate the ke values using the equation provided in Example 1. […] Thus, the dye approach can be used to quantify the increase in sampling rates for various methods (i.e., unagitated deployments, various types of agitated deployments), and provides a low cost and efficient method compared to other PRCs.

## COc1ccc(OC)c(N=Nc2c(O)ccc3ccccc23)c1 [Citrus Red 2]
[1]
  Log KOW value (may be estimate): 5.67

## CC(C)(Oc1ccc(Cl)cc1)C(=O)O [Clofibric acid]
[1]
  Log KOW value: 2.88

## O=C(O)Cc1ccccc1Nc1c(Cl)cccc1Cl [Diclofenac]
[1]
  Log KOW value: 1.9

## CC(C)Cc1ccc(C(C)C(=O)O)cc1 (centres unmarked) [Ibuprofen]
[1]
  Log KOW value: 2.48

## O=C1/C(=C2\Nc3ccccc3C2=O)Nc2ccccc21 [Indigo dye]
[1]
  Log KOW value (may be estimate): 3.7

## Clc1cccc(-c2cc(Cl)cc(Cl)c2)c1 [PCB-36]
[2]
  elimination rate ke: 0.043 day⁻¹

## Clc1ccc(-c2ccc(Cl)c(Cl)c2Cl)cc1 [PCB-60]
[3]
  Log10 KPE: 5.9 L/kg PE
[4]; from regression of FIG. 2
  estimated hypothetical ke interpolated from KPE: 0.028 day⁻¹

## Cc1c(C(C)C)c(=O)n(-c2ccccc2)n1C [Propyphenazone]
[1]
  Log KOW value: 2.02

## CCN(CC)c1ccc2c(-c3ccccc3C(=O)O)c3ccc(=[N+](CC)CC)cc-3oc2c1.[Cl-] [Rhodamine B]
[1]; dye compounds of Table 2
  Log KOW: 1.8

## Cc1ccc(Nc2ccc(O)c3c2C(=O)c2ccccc2C3=O)cc1 [Solvent Violet 13]
[5]
  ke: 0.16 day⁻¹
[1]; dye compounds of Table 2
  Log KOW: 6.2
[1]; dye compounds of Table 4
  Log KOW: 6.2
[4]
  Log10-transformed ke (hypothetical): -1.7 day^−1
  ke (hypothetical): 0.02 day⁻¹

## CC1(C)Nc2cccc3c(N=Nc4ccc(N=Nc5ccccc5)c5ccccc45)ccc(c23)N1 [Sudan Black B]
[5]
  Log10-transformed ke: -3.1 log10(day^−1)
  ke: 0.00072 day⁻¹
[1]; dye compounds of Table 4
  Log KOW: 8.8

## Oc1ccc2ccccc2c1N=Nc1ccc(N=Nc2ccccc2)cc1 [Sudan III]
[5]
  ke: 0.046 day⁻¹
[1]; dye compounds of Table 2
  Log KOW: 5.7
[1]; dye compounds of Table 4
  Log KOW: 5.7
[2]
  elimination rate ke: 0.032 day⁻¹
[4]
  Log10-transformed ke (hypothetical): −1.4 day^−1
  ke (hypothetical): 0.04 day⁻¹
[6]; agitated sediment (shaker table)
  average ke: 0.094 day⁻¹
[6]; marine sediment (unagitated)
  average ke: 0.030 day⁻¹

## Oc1ccc2ccccc2c1N=Nc1ccccc1 [Sudan I]
[1]; dye compounds of Table 2
  Log KOW: 5.5

## Oc1ccc(N=Nc2ccccc2)c(O)c1 [Sudan Orange G]
[5]
  ke: 0.41 day⁻¹
[1]; dye compounds of Table 2
  Log KOW: 3.9
[1]; dye compounds of Table 4
  Log KOW: 3.9
[4]
  Log10-transformed ke (hypothetical): −0.1 day^−1
  ke (hypothetical): 0.8 day⁻¹
